Measured values taken from patent US6710045B2, “Heterocyclic fluoroalkenyl thioethers and the use thereof as pesticides (IV)” (priority 2003, dated 2004).

Experiments:
[1] = test system: larvae of the mustard beetle (Phaedon cochleariae); experiment: Phaedon larvae test (dipped cabbage leaves); settings: active compound concentration 0.1%; after 7 days
[2] = test system: Meloidogyne incognita egg/larvae; experiment: Meloidogyne test (gall formation on lettuce roots); type: in vivo; settings: active compound concentration 20 ppm; after 14 days
Method: Containers are filled with sand, solution of active compound, Meloidogyne incognita egg/larvae suspension and lettuce seeds. The lettuce seeds germinate and the plants develop. On the roots, galls are formed.
After the desired period of time, the nematicidal action is determined in % using gall formation as a measure. 100% means that no galls were found; 0% means that the number of galls on the treated plants corresponds to that of the untreated control.

[3] = logP determination by HPLC (EEC Directive 79/831 Annex V.A8); type: physicochemical; settings: for chromatographic logP: pH 2.3, HPLC gradient method, acetonitrile/0.1% aqueous phosphoric acid
Method: The logP values were determined in accordance with EEC Directive 79/831 Annex V.A8 by HPLC (gradient method, acetonitrile/0.1% aqueous phosphoric acid).

SMILES	kill [1] [%]	nematicidal action (activity) using gall formation as a measure [2] [%]	chromatographic logP [3]	logP (pH 2) [3]
FC(F)=C(F)CCCCSc1nc2ccccc2s1 [Example 1, 2-(6,6,5-trifluorohex-5-enylthio)-benzothiazole]	100	100	4.83	–
O=S(=O)(CCCCC(F)=C(F)F)c1nc2ccccc2s1 [Example 3, 2-(6,6,5-trifluorohex-5-enylsulphonyl)-benzothiazole]	–	90	3.36	–
FC(F)=C(F)CCCCSc1ccc(-c2ccccc2Cl)nn1 [Example 16]	–	–	–	4.37
FC(F)=C(F)CCCCSc1nc2cc(SC(F)(F)F)ccc2o1 [Example 17]	–	–	–	5.62
